Test results taken from ChEMBL document CHEMBL3886913, “2,4-diamino-6,7-dihydro-5H-pyrrolo[2,3]pyrimidine derivatives as FAK/Pyk2 inhibitors” (2016).
pIC50: −log10 of the molar value.

Assays:
[1] = target: Focal adhesion kinase 1 (Homo sapiens, UniProt Q05397); test: (§1) Biochemical Assay: To measure inhibitory activity of FAK/PYK2 inhibitors, compounds were first prepare as a 1 mM stock in 100% DMSO and 3-fold serial dilution was performed in a 96-well plate (Corning, 3897) to generate 12 different concentration of 100× stock. A 5 μl of 100× stock of each concentration was added to wells containing 95 μl of 1× reaction buffer (40 mM Tris, pH7.5, […], 1 mM DTT and 1 mM CHAPS) to generate 5× stock. Then 2 μl of 5× stock of each concentration was added to a 384 wells-OptiPlate (PerkinElmer, 6007299). For FAK, 4 μl of 2.5 nM FAK, 1 μl of 8 μg/μl BSA and 1.5 μl of 666 nM ULight-poly Glu, Ala, Tyr (1:1:1) peptide substrate, prepared in above reaction buffer, were added to each well. The reaction was initiated by adding 1.5 μl of 33.3 μM ATP. The reaction was allowed to proceed for 120 min before being quenched with 5 μl of 40 mM EDTA stop buffer prepared in 1×LANCE detection buffer (PerkinElmer, CR97-100). For PYK2, 5 μl of 2 nM PYK2 and 1.5 μl of 666 nM ULight-poly Glu, Ala, Tyr (1:1:1) peptide substrate, prepared in above reaction buffer, were added to each well. The reaction was initiated by adding 1.5 μl of 46.6 μM ATP. The reaction was allowed to proceed for 40 min before being quenched with 5 μl of 40 mM EDTA stop buffer prepared in 1×LANCE detection buffer (PerkinElmer, CR97-100). Upon quenching of the reaction, 5 μl of 8 nM anti-phosphotyrosine antibody was added to each well and incubated for 60 minutes.
[2] = target: Protein-tyrosine kinase 2-beta (Homo sapiens, UniProt Q14289); test: as §1
Chain of Protein-tyrosine kinase 2-beta (Q14289 whole entry): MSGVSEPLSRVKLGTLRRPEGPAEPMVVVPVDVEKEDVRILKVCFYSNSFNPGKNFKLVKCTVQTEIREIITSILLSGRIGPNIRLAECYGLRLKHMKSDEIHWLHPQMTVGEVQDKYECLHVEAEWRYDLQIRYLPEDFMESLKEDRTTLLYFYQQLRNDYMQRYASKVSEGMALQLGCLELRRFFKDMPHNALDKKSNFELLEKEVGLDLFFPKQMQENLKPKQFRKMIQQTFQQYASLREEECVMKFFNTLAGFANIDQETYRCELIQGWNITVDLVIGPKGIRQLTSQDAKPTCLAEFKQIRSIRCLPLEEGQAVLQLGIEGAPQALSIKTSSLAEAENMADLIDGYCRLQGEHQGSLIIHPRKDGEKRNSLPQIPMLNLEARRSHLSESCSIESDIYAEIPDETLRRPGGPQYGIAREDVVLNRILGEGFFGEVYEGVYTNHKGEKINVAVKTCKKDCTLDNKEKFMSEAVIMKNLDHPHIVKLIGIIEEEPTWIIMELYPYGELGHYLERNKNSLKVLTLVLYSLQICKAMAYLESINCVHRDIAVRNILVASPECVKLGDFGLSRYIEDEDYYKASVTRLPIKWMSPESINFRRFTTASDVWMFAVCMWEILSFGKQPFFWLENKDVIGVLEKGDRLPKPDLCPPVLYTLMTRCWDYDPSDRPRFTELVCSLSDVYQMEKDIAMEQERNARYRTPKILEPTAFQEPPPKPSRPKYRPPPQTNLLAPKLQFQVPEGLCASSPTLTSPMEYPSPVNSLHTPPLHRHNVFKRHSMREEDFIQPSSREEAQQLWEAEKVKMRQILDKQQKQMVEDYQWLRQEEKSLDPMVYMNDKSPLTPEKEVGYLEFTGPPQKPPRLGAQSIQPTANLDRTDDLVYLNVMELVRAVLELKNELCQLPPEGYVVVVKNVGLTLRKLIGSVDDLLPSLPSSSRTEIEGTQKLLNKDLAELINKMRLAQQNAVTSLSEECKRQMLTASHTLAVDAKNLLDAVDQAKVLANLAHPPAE

Chain of Focal adhesion kinase 1 (Q05397 whole entry): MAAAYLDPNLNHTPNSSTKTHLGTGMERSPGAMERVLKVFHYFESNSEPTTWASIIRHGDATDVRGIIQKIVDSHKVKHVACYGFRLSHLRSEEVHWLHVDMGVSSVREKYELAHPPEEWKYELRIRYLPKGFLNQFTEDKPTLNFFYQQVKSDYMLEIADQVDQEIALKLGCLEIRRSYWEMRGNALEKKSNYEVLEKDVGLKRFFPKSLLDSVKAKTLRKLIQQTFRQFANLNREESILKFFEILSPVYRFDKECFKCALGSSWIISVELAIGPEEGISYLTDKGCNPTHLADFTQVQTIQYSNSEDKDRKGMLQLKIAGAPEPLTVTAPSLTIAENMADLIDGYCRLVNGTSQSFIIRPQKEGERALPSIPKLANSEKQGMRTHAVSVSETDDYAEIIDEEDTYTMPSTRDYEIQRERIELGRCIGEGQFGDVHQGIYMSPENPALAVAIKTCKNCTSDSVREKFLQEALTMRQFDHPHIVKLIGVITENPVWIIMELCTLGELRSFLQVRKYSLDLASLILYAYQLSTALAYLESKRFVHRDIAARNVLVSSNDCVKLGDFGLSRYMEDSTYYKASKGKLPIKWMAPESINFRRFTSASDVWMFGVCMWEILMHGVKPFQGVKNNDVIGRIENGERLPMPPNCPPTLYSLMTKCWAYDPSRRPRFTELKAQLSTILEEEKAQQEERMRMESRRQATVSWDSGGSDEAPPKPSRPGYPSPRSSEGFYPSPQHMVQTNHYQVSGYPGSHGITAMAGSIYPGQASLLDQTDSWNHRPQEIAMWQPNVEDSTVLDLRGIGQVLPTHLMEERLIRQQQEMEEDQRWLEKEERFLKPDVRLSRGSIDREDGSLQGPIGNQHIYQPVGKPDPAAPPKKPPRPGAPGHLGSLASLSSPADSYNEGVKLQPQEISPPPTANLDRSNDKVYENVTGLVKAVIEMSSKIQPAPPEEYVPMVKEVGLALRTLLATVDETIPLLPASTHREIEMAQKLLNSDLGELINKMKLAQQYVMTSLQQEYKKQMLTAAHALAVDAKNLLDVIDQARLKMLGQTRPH

Row | Structure (SMILES) | pIC50 [1] | pIC50 [2]
1 | CCOc1cc(N2CCOCC2)ccc1Nc1nc2c(c(Nc3ccccc3S(=O)(=O)NC(C)C)n1)CCN2 | > 7.30 | > 7.00
2 | COc1cc(N2CCOCC2)ccc1Nc1nc2c(c(Nc3ccc(F)c(F)c3)n1)CCN2 | < 6.00 | > 6.00
3 | COc1cc(N2CCOCC2)ccc1Nc1nc2c(c(Nc3ccccc3CCO)n1)CCN2 | > 6.00 | > 6.00
4 | COc1cc(N2C(=O)CCc3ccccc32)ccc1Nc1nc2c(c(Nc3ccccc3S(=O)(=O)NC(C)C)n1)CCN2 | > 6.30 | > 6.30

Other lines, results leading:

Row | pIC50 [1] | pIC50 [2] | Structure (SMILES)
5 | > 7.70 | > 7.70 | COc1cc(N2CCCCC2=O)ccc1Nc1nc2c(c(Nc3ccccc3S(=O)(=O)NC(C)C)n1)CCN2
6 | > 7.70 | > 7.70 | CCC(C)NS(=O)(=O)c1ccccc1Nc1nc(Nc2ccc(N3CCOCC3)cc2OC)nc2c1C1(CC1)CN2 (stereo unspecified)
7 | > 7.70 | > 7.70 | CC(C)NS(=O)(=O)c1ccccc1Nc1nc(Nc2ccc(C(C)N3CCCCC3)cc2)nc2c1CCN2 (stereo unspecified)
8 | > 7.70 | > 7.70 | COc1cc(N2CCC(N3CCOCC3)CC2)ccc1Nc1nc2c(c(Nc3ccccc3S(=O)(=O)NC(C)C)n1)CCN2
